Data from patent US7902198B2, “Crystalline aripiprazole solvates” (Synthon BV, priority 2004, dated 2011).

Tests used:
[1] = Solid-state stability upon storage at room temperature; format: physicochemical; details: hemi-ethanolate for at least one month, methanolate prolonged storage
Text: In practice, the molar ratio between aripiprazole and ethanol moieties in the isolated product is from 1:0.4 to 1:0.6, preferably 1:0.45 to 1:0.6.

[2] = Solid-state stability towards thermal energy, milling and forced sieving; details: for change of crystalline structure during milling: milling (Example 7: ball mill 1 minute, IR and XRPD)
[3] = as taught in WO 03/26659, cited from earlier work

| SMILES | stability upon storage [1] | change of crystalline structure during milling [2] | other results |
| --- | --- | --- | --- |
| O=C1CCc2ccc(OCCCCN3CCN(c4cccc(Cl)c4Cl)CC3)cc2N1 [Aripiprazole hemi-ethanolate, 7-[4-[4-(2,3-dichlorophenyl)-1-piperazinyl]butoxy]-3,4-dihydrocarbostyril] | reasonably stable |  | stability towards thermal energy, including milling [2]: rather unstable |
| O=C1CCc2ccc(OCCCCN3CCN(c4cccc(Cl)c4Cl)CC3)cc2N1 [Anhydrous Form B, 7-[4-[4-(2,3-dichlorophenyl)-1-piperazinyl]butoxy]-3,4-dihydrocarbostyril] |  |  | water uptake ([3]; in 24 hours): less than 0.4% |
| O=C1CCc2ccc(OCCCCN3CCN(c4cccc(Cl)c4Cl)CC3)cc2N1 [Example 5] |  |  | effect of forced sieving on the crystal structure ([2]; pressed through a 100 μm sieve, IR, XRPD): no detectable effect on the crystal structure |
| O=C1CCc2ccc(OCCCCN3CCN(c4cccc(Cl)c4Cl)CC3)cc2N1 [aripiprazole methanolate, 7-[4-[4-(2,3-dichlorophenyl)-1-piperazinyl]butoxy]-3,4-dihydrocarbostyril] | more stable upon prolonged storage at room temperature than the hemi-ethanolate | does not change its crystalline structure |  |
| O=C1CCc2ccc(OCCCCN3CCN(c4cccc(Cl)c4Cl)CC3)cc2N1 [Example 7] |  | crystal structure has not been changed |  |
| O=C1CCc2ccc(OCCCCN3CCN(c4cccc(Cl)c4Cl)CC3)cc2N1 [Type I aripiprazole, 7-[4-[4-(2,3-dichlorophenyl)-1-piperazinyl]butoxy]-3,4-dihydrocarbostyril] |  |  | hygroscopicity [3]: significantly hygroscopic |
